Laboratory results reported in paper PMC8800111 (The Journal of Biological Chemistry, 2021).

Columns and labels:
Assay type in all cases: cell-based
[1] = target: proteins of U3A human fibrosarcoma cells (4462 proteins detected) (Homo sapiens, UniProt Q7Z5L2); settings: protein R3HCC1L; U3A, 10 μM, 2 h
[2] = target: proteins of U3A human fibrosarcoma cells (4462 proteins detected) (Homo sapiens, UniProt P57772); settings: protein EEFSEC, U3A cells
[3] = target: proteins of U3A human fibrosarcoma cells (4462 proteins detected) (Homo sapiens, UniProt P61088); settings: protein UBE2N; UBE2NL; U3A cells
[4] = target: proteins of U3A human fibrosarcoma cells (4462 proteins detected) (Homo sapiens, UniProt Q99459); settings: protein CDC5L; U3A cells
[5] = target: proteins of U3A human fibrosarcoma cells (4462 proteins detected) (Homo sapiens, UniProt Q07020); settings: protein RPL18; soluble abundance after heat, U3A cells
[6] = target: proteins of U3A human fibrosarcoma cells (4462 proteins detected) (Homo sapiens, UniProt Q6P1N0); settings: protein CC2D1A; soluble abundance after heat, U3A cells
[7] = target: proteins of U3A human fibrosarcoma cells (4462 proteins detected) (Homo sapiens, UniProt Q9NR28); settings: protein DIABLO; U3A cells
[8] = target: proteins of U3A human fibrosarcoma cells (4462 proteins detected) (Homo sapiens, UniProt Q92575); settings: protein UBXN4; U3A cells
[9] = target: proteins of U3A human fibrosarcoma cells (4462 proteins detected) (Homo sapiens, UniProt P28482); settings: protein MAPK1; soluble abundance after heat, U3A cells
[10] = target: proteins of U3A human fibrosarcoma cells (4462 proteins detected) (Homo sapiens, UniProt P56282); settings: protein POLE2; U3A cells
[11] = target: proteins of U3A human fibrosarcoma cells (4462 proteins detected) (Homo sapiens, UniProt O15294); settings: protein OGT; U3A cells
[12] = target: proteins of U3A human fibrosarcoma cells (4462 proteins detected) (Homo sapiens, UniProt Q9H3H3); settings: protein C11orf68; soluble abundance after heat, U3A cells
[13] = target: proteins of U3A human fibrosarcoma cells (4462 proteins detected) (Homo sapiens, UniProt Q9BQG0); settings: protein MYBBP1A; U3A, 10 μM, 2 h
[14] = target: proteins of U3A human fibrosarcoma cells (4462 proteins detected) (Homo sapiens, UniProt P31949); settings: protein S100A11, U3A cells
[15] = target: proteins of U3A human fibrosarcoma cells (4462 proteins detected) (Homo sapiens, UniProt P06733); settings: protein ENO1; U3A, 10 μM, 2 h
[16] = target: proteins of U3A human fibrosarcoma cells (4462 proteins detected) (Homo sapiens, UniProt P54802); settings: protein NAGLU, U3A cells
[17] = target: proteins of U3A human fibrosarcoma cells (4462 proteins detected) (Homo sapiens, UniProt O00567); settings: protein NOP56; U3A cells
[18] = target: proteins of U3A human fibrosarcoma cells (4462 proteins detected) (Homo sapiens, UniProt Q76FK4); settings: protein NOL8; soluble abundance after heat, U3A cells
[19] = target: proteins of U3A human fibrosarcoma cells (4462 proteins detected) (Homo sapiens, UniProt P49321); settings: protein NASP, U3A cells
[20] = target: proteins of U3A human fibrosarcoma cells (4462 proteins detected) (Homo sapiens, UniProt O00422); settings: protein SAP18; soluble abundance after heat, U3A cells
[21] = target: proteins of U3A human fibrosarcoma cells (4462 proteins detected) (Homo sapiens, UniProt Q15459); settings: protein SF3A1; U3A cells
[22] = target: proteins of U3A human fibrosarcoma cells (4462 proteins detected) (Homo sapiens, UniProt Q96PE7); settings: protein MCEE; U3A, 10 μM, 2 h
[23] = target: proteins of U3A human fibrosarcoma cells (4462 proteins detected) (Homo sapiens, UniProt P08758); settings: protein ANXA5, U3A cells
[24] = target: proteins of U3A human fibrosarcoma cells (4462 proteins detected) (Homo sapiens, UniProt Q8NAV1); settings: protein PRPF38A; U3A cells
[25] = target: proteins of U3A human fibrosarcoma cells (4462 proteins detected) (Homo sapiens, UniProt Q6SPF0); settings: protein SAMD1; soluble abundance after heat, U3A cells
[26] = target: proteins of U3A human fibrosarcoma cells (4462 proteins detected) (Homo sapiens, UniProt O95197); settings: protein RTN3; U3A cells
[27] = target: proteins of U3A human fibrosarcoma cells (4462 proteins detected) (Homo sapiens, UniProt Q96BP2); settings: protein CHCHD1; soluble abundance after heat, U3A cells
[28] = target: proteins of U3A human fibrosarcoma cells (4462 proteins detected) (Homo sapiens, UniProt P30419); settings: protein NMT1, U3A cells
[29] = target: proteins of U3A human fibrosarcoma cells (4462 proteins detected) (Homo sapiens, UniProt P23919); settings: protein DTYMK; U3A cells
proteins of U3A human fibrosarcoma cells (4462 proteins detected) (Homo sapiens, UniProt P23919), sequence (P23919 whole entry): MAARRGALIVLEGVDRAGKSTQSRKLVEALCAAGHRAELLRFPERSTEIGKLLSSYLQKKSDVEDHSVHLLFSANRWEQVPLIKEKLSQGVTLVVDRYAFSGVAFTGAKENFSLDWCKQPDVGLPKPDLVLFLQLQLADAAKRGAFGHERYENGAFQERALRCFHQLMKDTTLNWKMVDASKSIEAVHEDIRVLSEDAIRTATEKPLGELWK

proteins of U3A human fibrosarcoma cells (4462 proteins detected) (Homo sapiens, UniProt O15294), sequence (O15294 whole entry): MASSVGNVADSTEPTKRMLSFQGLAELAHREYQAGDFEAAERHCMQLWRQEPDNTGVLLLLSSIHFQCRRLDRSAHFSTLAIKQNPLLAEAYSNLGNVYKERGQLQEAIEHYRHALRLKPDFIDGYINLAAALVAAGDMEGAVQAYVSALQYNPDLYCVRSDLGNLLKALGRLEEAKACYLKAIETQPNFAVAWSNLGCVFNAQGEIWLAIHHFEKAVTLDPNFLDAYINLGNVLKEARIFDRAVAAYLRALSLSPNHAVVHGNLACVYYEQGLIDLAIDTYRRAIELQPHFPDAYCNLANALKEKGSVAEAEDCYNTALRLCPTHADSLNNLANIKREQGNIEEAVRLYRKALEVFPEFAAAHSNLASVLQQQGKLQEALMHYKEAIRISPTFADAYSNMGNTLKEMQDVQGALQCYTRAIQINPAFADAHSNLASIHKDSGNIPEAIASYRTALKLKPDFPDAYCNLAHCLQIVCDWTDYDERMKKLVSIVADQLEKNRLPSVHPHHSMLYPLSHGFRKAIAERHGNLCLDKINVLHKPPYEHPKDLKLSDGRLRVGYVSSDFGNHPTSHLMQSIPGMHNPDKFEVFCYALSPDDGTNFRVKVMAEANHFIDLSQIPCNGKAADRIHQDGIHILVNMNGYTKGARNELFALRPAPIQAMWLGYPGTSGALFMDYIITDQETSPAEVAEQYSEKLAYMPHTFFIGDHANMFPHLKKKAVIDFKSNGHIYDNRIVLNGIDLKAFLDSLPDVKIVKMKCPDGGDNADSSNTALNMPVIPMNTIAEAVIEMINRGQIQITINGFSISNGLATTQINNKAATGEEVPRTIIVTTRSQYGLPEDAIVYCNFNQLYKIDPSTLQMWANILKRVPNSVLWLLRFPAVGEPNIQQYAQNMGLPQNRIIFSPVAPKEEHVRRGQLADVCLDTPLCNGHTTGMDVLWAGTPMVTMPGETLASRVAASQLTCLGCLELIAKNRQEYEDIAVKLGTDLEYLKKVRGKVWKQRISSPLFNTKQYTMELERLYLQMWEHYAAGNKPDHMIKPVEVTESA
proteins of U3A human fibrosarcoma cells (4462 proteins detected) (Homo sapiens, UniProt Q15459), sequence (Q15459 whole entry): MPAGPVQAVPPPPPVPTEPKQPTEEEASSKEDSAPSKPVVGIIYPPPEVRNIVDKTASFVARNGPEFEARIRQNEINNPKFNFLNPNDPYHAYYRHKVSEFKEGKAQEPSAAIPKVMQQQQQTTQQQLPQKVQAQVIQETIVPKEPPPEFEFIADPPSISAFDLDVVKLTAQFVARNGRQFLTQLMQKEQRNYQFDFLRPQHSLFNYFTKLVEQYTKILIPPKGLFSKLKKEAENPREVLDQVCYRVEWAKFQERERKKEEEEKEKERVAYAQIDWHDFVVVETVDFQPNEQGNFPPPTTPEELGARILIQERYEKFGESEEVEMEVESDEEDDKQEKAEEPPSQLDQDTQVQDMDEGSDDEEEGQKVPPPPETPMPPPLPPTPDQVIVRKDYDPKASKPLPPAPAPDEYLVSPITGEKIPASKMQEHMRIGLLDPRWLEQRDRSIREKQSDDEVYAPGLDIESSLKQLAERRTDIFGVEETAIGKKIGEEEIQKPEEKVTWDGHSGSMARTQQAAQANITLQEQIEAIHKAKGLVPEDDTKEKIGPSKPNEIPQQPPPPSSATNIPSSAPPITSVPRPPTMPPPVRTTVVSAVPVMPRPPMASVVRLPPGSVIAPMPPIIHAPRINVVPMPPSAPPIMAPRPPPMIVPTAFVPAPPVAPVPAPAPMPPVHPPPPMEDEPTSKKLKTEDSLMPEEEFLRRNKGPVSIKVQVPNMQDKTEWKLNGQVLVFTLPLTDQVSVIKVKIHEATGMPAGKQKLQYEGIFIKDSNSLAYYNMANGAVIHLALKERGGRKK
proteins of U3A human fibrosarcoma cells (4462 proteins detected) (Homo sapiens, UniProt P31949), sequence (P31949 whole entry): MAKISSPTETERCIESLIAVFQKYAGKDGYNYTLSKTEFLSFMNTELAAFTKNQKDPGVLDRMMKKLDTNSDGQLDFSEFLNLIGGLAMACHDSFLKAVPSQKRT
proteins of U3A human fibrosarcoma cells (4462 proteins detected) (Homo sapiens, UniProt Q8NAV1), sequence (Q8NAV1 whole entry): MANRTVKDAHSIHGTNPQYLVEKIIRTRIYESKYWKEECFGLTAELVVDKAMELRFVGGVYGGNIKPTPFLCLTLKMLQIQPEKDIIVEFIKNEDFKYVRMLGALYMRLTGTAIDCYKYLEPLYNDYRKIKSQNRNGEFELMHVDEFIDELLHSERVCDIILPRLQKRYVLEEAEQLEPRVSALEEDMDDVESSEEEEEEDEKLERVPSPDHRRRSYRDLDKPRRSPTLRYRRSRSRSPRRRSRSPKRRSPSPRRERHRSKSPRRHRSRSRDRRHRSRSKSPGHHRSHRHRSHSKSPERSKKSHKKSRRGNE
proteins of U3A human fibrosarcoma cells (4462 proteins detected) (Homo sapiens, UniProt P61088), sequence (P61088 whole entry): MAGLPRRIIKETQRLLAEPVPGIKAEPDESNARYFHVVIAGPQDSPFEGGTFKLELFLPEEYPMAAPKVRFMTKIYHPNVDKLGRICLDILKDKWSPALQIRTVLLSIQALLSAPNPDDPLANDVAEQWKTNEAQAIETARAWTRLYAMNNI
proteins of U3A human fibrosarcoma cells (4462 proteins detected) (Homo sapiens, UniProt P57772), sequence (P57772 whole entry): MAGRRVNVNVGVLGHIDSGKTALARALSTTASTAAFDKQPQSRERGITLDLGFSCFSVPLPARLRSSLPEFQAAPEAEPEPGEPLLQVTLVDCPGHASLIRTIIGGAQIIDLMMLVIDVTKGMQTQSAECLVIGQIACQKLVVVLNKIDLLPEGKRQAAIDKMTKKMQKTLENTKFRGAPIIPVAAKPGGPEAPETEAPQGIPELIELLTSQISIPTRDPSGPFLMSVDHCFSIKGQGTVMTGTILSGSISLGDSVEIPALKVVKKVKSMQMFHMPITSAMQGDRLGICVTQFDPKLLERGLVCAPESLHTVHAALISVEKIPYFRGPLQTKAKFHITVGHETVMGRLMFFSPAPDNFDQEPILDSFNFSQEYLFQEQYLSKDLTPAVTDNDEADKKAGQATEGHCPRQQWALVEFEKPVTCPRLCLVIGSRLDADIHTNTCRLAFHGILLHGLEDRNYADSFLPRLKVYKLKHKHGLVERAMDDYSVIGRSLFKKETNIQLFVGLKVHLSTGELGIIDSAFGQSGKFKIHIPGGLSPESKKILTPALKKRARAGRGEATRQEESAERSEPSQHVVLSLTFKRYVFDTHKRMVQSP
proteins of U3A human fibrosarcoma cells (4462 proteins detected) (Homo sapiens, UniProt Q9H3H3), sequence (Q9H3H3 whole entry): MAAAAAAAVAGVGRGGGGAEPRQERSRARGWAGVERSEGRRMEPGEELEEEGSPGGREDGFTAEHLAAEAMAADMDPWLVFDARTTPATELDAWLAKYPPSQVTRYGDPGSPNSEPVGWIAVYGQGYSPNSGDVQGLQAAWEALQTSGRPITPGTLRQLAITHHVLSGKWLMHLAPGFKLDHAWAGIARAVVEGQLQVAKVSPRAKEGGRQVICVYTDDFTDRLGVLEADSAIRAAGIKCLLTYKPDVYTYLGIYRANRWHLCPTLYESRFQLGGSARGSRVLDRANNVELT
proteins of U3A human fibrosarcoma cells (4462 proteins detected) (Homo sapiens, UniProt P08758), sequence (P08758 whole entry): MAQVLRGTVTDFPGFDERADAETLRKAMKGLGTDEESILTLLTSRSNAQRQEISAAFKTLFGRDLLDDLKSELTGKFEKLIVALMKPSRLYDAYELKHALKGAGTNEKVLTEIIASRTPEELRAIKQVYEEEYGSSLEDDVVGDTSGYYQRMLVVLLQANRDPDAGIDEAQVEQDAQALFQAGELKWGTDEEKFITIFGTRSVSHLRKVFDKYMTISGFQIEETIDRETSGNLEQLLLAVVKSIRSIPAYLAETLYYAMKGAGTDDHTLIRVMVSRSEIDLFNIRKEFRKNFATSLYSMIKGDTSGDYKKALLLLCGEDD
proteins of U3A human fibrosarcoma cells (4462 proteins detected) (Homo sapiens, UniProt O95197), sequence (O95197 whole entry): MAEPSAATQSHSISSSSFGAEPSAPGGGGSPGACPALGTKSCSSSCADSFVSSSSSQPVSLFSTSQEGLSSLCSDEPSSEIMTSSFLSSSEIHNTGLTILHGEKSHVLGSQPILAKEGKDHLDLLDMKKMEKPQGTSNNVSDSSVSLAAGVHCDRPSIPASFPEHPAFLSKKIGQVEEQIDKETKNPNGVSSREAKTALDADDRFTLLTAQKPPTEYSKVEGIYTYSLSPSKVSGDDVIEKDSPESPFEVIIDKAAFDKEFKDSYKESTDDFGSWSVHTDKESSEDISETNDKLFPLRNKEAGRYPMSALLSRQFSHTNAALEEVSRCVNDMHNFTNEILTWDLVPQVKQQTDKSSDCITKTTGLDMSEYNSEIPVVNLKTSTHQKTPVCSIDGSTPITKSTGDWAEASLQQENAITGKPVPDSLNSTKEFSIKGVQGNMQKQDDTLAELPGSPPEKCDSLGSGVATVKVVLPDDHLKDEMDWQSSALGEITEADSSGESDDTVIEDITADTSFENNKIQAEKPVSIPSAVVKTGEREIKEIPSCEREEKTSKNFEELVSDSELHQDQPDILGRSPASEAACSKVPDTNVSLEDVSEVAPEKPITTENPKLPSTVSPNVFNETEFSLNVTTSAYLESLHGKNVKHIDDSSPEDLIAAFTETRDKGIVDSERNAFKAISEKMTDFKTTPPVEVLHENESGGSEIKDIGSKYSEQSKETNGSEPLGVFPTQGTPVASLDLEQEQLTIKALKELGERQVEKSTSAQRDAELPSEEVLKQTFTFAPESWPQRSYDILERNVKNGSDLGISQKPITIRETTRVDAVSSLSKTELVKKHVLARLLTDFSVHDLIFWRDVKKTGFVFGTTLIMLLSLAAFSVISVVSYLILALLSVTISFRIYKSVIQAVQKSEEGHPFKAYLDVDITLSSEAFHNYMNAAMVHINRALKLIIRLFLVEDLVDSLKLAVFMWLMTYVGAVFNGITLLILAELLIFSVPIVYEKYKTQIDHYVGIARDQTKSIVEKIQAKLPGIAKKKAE

For `CCc1nc(N)nc(N)c1-c1ccc(Cl)cc1` [pyrimethamine], the “Log2 (PYR/DMSO), R3HCC1L” value [1] was -0.20, the “Log2 (PYR/DMSO)” value [2] was -0.04 and the “Log2 (PYR/DMSO)” value [3] was 0.21. The “Log2 (PYR/DMSO)” value [4] was 0.18, the “Log2 (PYR/DMSO)” value [5] was 0.15 and the “Log2 (PYR/DMSO)” value [6] was 0.15. For the same compound, the “Log2 (PYR/DMSO)” value [7] was 0.16, the “Log2 (PYR/DMSO)” value [8] was 0.18 and the “Log2 (PYR/DMSO)” value [9] was 0.15. For the same compound, the “Log2 (PYR/DMSO)” value [10] was 0.19, the “Log2 (PYR/DMSO)” value [11] was 0.16 and the “Log2 (PYR/DMSO)” value [12] was 0.14. For the same compound, the “Log2 (PYR/DMSO), MYBBP1A” value [13] was 0.26, the “Log2 (PYR/DMSO)” value [14] was -0.04 and the “Log2 (PYR/DMSO), ENO1” value [15] was -0.17. The “Log2 (PYR/DMSO)” value [16] was -0.03, the “Log2 (PYR/DMSO)” value [17] was 0.21 and the “Log2 (PYR/DMSO)” value [18] was 0.13. For the same compound, the “Log2 (PYR/DMSO)” value [19] was -0.04, the “Log2 (PYR/DMSO)” value [20] was 0.14 and the “Log2 (PYR/DMSO)” value [21] was 0.16. For the same compound, the “Log2 (PYR/DMSO), MCEE” value [22] was 0.25, the “Log2 (PYR/DMSO)” value [23] was -0.04 and the “Log2 (PYR/DMSO)” value [24] was 0.16. For the same compound, the “Log2 (PYR/DMSO)” value [25] was 0.15, the “Log2 (PYR/DMSO)” value [26] was 0.16 and the “Log2 (PYR/DMSO)” value [27] was 0.15. The “Log2 (PYR/DMSO)” value [28] was -0.05 and the “Log2 (PYR/DMSO)” value [29] was 0.20.
